Test results as given in ChEMBL document CHEMBL3885861, “Open TG-GATES”.

Species on record: Rattus norvegicus
Assay: Open TG-GATES - Regimen: Single
Format: toxicity, organism-based, Sprague-Dawley
Design: regimen Single, gender Male, age 6 weeks
Details: in vivo, po, route gavage; for WBC / APTT / Bas / Eos / Fbg / Hb / Ht / Lym / MCH / MCHC / MCV / Mono / Neu / PT / Plat / RBC / Ret: tissue Blood; for KIDNEY_L / KIDNEY_R / KIDNEY_TOTAL: tissue Kidney; for LIVER: tissue Liver; for A/G / ALP / ALT / AST / BUN / CRE / Ca / Cl / DBIL / GLC / IP / K / LDH / Na / PL / RALB / TBIL / TC / TG / TP / gamma-GTP: tissue Plasma
[1] = 2 mg/kg, 9 h, dose level Middle
[2] = 2 mg/kg, 24 h, dose level Middle

Structure (SMILES): COc1ccc2c(c1)c(CC(=O)O)c(C)n2C(=O)c1ccc(Cl)cc1 [INDOMETHACIN]
- WBC [1]: 114.3 x10_2/uL
- KIDNEY_L [1]: 0.9 g
- KIDNEY_R [1]: 0.9 g
- KIDNEY_TOTAL [1]: 1.8 g
- LIVER [1]: 8.3 g
- A/G [1]: 2.7
- ALP [1]: 944 IU/L
- ALT [1]: 35.2 IU/L
- AST [1]: 65.6 IU/L
- BUN [1]: 14.2 mg/dL
- CRE [1]: 0.5 mg/dL
- Ca [1]: 10.2 mg/dL
- Cl [1]: 106.8 meq/L
- DBIL [1]: 0.01 mg/dL
- GLC [1]: 199.6 mg/dL
- IP [1]: 10.5 mg/dL
- K [1]: 5 meq/L
- LDH [1]: 80.8 IU/L
- Na [1]: 138.2 meq/L
- PL [1]: 125.8 mg/dL
- RALB [1]: 3.9 g/dL
- TBIL [1]: 0.5 mg/dL
- TC [1]: 72.2 mg/dL
- TG [1]: 35.4 mg/dL
- TP [1]: 5.3 g/dL
- gamma-GTP [1]: 1.8 IU/L
- TERMINAL_BW [2]: 209.2 g
- APTT [2]: 16.1 s
- Bas [2]: 0%
- Eos [2]: 0.8%
- Fbg [2]: 204.6 mg/dL
- Hb [2]: 13.4 g/dL
- Ht [2]: 40.7%
- Lym [2]: 80.6%
- MCH [2]: 21.5 pg
- MCHC [2]: 33%
- MCV [2]: 65 fL
- Mono [2]: 8.8%
- Neu [2]: 10.2%
- PT [2]: 12.1 s
- Plat [2]: 96.4 x10_4/uL
- RBC [2]: 626.8 x10_4/ul
- Ret [2]: 8.6%
- WBC [2]: 112.4 x10_2/uL
- KIDNEY_L [2]: 0.9 g
- KIDNEY_R [2]: 0.9 g
- KIDNEY_TOTAL [2]: 1.9 g
- LIVER [2]: 10.1 g
- A/G [2]: 2.4
- ALP [2]: 1232.8 IU/L
- ALT [2]: 38.2 IU/L
- AST [2]: 70.6 IU/L
- BUN [2]: 16.4 mg/dL
- CRE [2]: 0.5 mg/dL
- Ca [2]: 10.4 mg/dL
- Cl [2]: 106.4 meq/L
- DBIL [2]: 0.004 mg/dL
- GLC [2]: 195.4 mg/dL
- IP [2]: 8.1 mg/dL
- K [2]: 4.9 meq/L
- LDH [2]: 83.6 IU/L
- Na [2]: 138.4 meq/L
- PL [2]: 140.6 mg/dL
- RALB [2]: 3.9 g/dL
- TBIL [2]: 0.3 mg/dL
- TC [2]: 75.4 mg/dL
- TG [2]: 95.2 mg/dL
- TP [2]: 5.6 g/dL
- gamma-GTP [2]: 1.4 IU/L
- TERMINAL_BW (5 mg/kg, 3 h, dose level High): 201.4 g
- TERMINAL_BW (5 mg/kg, 3 h, dose level Low): 224.1 g
- APTT (5 mg/kg, 3 h, dose level High): 16.5 s
- Bas (5 mg/kg, 3 h, dose level High): 0%
- Eos (5 mg/kg, 3 h, dose level High): 0.2%
- Fbg (5 mg/kg, 3 h, dose level High): 211 mg/dL
- Hb (5 mg/kg, 3 h, dose level High): 13.6 g/dL
- Ht (5 mg/kg, 3 h, dose level High): 41.1%
- Lym (5 mg/kg, 3 h, dose level High): 78.4%
- MCH (5 mg/kg, 3 h, dose level High): 21.5 pg
- MCHC (5 mg/kg, 3 h, dose level High): 33.3%
- MCV (5 mg/kg, 3 h, dose level High): 64.8 fL
- Mono (5 mg/kg, 3 h, dose level High): 9%
- Neu (5 mg/kg, 3 h, dose level High): 12.4%
- PT (5 mg/kg, 3 h, dose level High): 12.5 s
- Plat (5 mg/kg, 3 h, dose level High): 108.6 x10_4/uL
- RBC (5 mg/kg, 3 h, dose level High): 634.6 x10_4/ul
- Ret (5 mg/kg, 3 h, dose level High): 8.9%
- WBC (5 mg/kg, 3 h, dose level High): 130.2 x10_2/uL
- APTT (5 mg/kg, 3 h, dose level Low): 18.2 s
- Eos (5 mg/kg, 3 h, dose level Low): 0.8%
- Fbg (5 mg/kg, 3 h, dose level Low): 222.6 mg/dL
- Hb (5 mg/kg, 3 h, dose level Low): 13.9 g/dL
- Ht (5 mg/kg, 3 h, dose level Low): 38%
- Lym (5 mg/kg, 3 h, dose level Low): 79.4%
- MCH (5 mg/kg, 3 h, dose level Low): 22.1 pg
- MCHC (5 mg/kg, 3 h, dose level Low): 36.6%
- MCV (5 mg/kg, 3 h, dose level Low): 60.4 fL
- Mono (5 mg/kg, 3 h, dose level Low): 2.8%
- Neu (5 mg/kg, 3 h, dose level Low): 15.6%
- PT (5 mg/kg, 3 h, dose level Low): 11.7 s
- Plat (5 mg/kg, 3 h, dose level Low): 115.7 x10_4/uL
- RBC (5 mg/kg, 3 h, dose level Low): 629.4 x10_4/ul
- Ret (5 mg/kg, 3 h, dose level Low): 7.6%
- WBC (5 mg/kg, 3 h, dose level Low): 76.1 x10_2/uL
- KIDNEY_L (5 mg/kg, 3 h, dose level High): 0.9 g
- KIDNEY_R (5 mg/kg, 3 h, dose level High): 1 g
- KIDNEY_TOTAL (5 mg/kg, 3 h, dose level High): 1.9 g
- KIDNEY_L (5 mg/kg, 3 h, dose level Low): 1 g
- KIDNEY_TOTAL (5 mg/kg, 3 h, dose level Low): 2.1 g
- LIVER (5 mg/kg, 3 h, dose level High): 9.2 g
- LIVER (5 mg/kg, 3 h, dose level Low): 9.6 g
- A/G (5 mg/kg, 3 h, dose level High): 1.5
- ALP (5 mg/kg, 3 h, dose level High): 1085.6 IU/L
- ALT (5 mg/kg, 3 h, dose level High): 42.6 IU/L
- AST (5 mg/kg, 3 h, dose level High): 70.2 IU/L
- BUN (5 mg/kg, 3 h, dose level High): 11 mg/dL
- CRE (5 mg/kg, 3 h, dose level High): 0.4 mg/dL
- Ca (5 mg/kg, 3 h, dose level High): 10.5 mg/dL
- Cl (5 mg/kg, 3 h, dose level High): 105.2 meq/L
- DBIL (5 mg/kg, 3 h, dose level High): 0.034 mg/dL
- GLC (5 mg/kg, 3 h, dose level High): 191 mg/dL
- IP (5 mg/kg, 3 h, dose level High): 9.5 mg/dL
- K (5 mg/kg, 3 h, dose level High): 5 meq/L
- LDH (5 mg/kg, 3 h, dose level High): 172 IU/L
- Na (5 mg/kg, 3 h, dose level High): 137 meq/L
- PL (5 mg/kg, 3 h, dose level High): 126.2 mg/dL
- RALB (5 mg/kg, 3 h, dose level High): 3.6 g/dL
- TBIL (5 mg/kg, 3 h, dose level High): 0.3 mg/dL
- TC (5 mg/kg, 3 h, dose level High): 71.8 mg/dL
- TG (5 mg/kg, 3 h, dose level High): 55 mg/dL
- TP (5 mg/kg, 3 h, dose level High): 6.1 g/dL
- gamma-GTP (5 mg/kg, 3 h, dose level High): 1.2 IU/L
- A/G (5 mg/kg, 3 h, dose level Low): 1.6
- ALP (5 mg/kg, 3 h, dose level Low): 872.4 IU/L
- ALT (5 mg/kg, 3 h, dose level Low): 37.8 IU/L
- AST (5 mg/kg, 3 h, dose level Low): 76.4 IU/L
- BUN (5 mg/kg, 3 h, dose level Low): 10.8 mg/dL
- Cl (5 mg/kg, 3 h, dose level Low): 103 meq/L
- DBIL (5 mg/kg, 3 h, dose level Low): 0.068 mg/dL
- GLC (5 mg/kg, 3 h, dose level Low): 187.6 mg/dL
- IP (5 mg/kg, 3 h, dose level Low): 9.3 mg/dL
- K (5 mg/kg, 3 h, dose level Low): 4.2 meq/L
- LDH (5 mg/kg, 3 h, dose level Low): 213 IU/L
- Na (5 mg/kg, 3 h, dose level Low): 140.8 meq/L
- PL (5 mg/kg, 3 h, dose level Low): 145.6 mg/dL
- RALB (5 mg/kg, 3 h, dose level Low): 3.3 g/dL
- TBIL (5 mg/kg, 3 h, dose level Low): 0.1 mg/dL
- TC (5 mg/kg, 3 h, dose level Low): 85.4 mg/dL
